20 compounds from patent US20260209222A1, “CBL-B MODULATORS AND USES THEREOF” (Nimbus Clio, Inc., priority 2022, published 2026) can be followed below.

In test [1] the target is T1, Recombinant human Cbl-b (aa 36-427) (Homo sapiens, UniProt Q13191).
T1 construct: Recombinant human Cbl-b (aa 36-427) was expressed in E coli; biotin (biotinylated in vitro); made in house; host or cells: E. coli
As to the kind of experiment: Cbl-b Biochemical Assay (TR-FRET). Conditions: 6 nM Cbl-b, 1-2.5 nM Src-Zap70, 0.5 mM ATP; HTRF signal at 520 nm. As for the experimental part:
Cbl-b Biochemical Assay (TR-FRET)
Recombinant human Cbl-b (aa 36-427) was expressed in E coli, purified and biotinylated in vitro. The protein was diluted to 12 nM in freshly prepared assay buffer consisting of 50 mM HEPES, pH 7.0, 100 mM NaCl, 5 mM MgCl2, 0.01% Triton-X 100, 0.01% BSA and 1 mM DTT. Recombinant human Src (aa 254-536)-GSSGSS-Zap-70 (aa 281-297) fusion protein was expressed in E coli and purified. Protein was diluted in assay buffer to 2-5 nM and supplemented with ATP to 1 mM. Fluorescein-BODIPY labeled UBED2D(C85K)-Ub was prepared by conjugating ubiquitin (Ub) labeled at its N-terminus with Fluorescein-BODIPY maleimide (ThermoFisher Catalog no B10250) to E coli expressed and purified UBED2D(C85K) [see Dou et al Nature Structural and Molecular Biology 8: 982-987, 2013]. Recombinant human UBE2D2(C85K) was expressed in E coli, purified and ubiquitinated and Bodipy labelled in vitro. Protein was diluted to 200 nM in assay buffer without MgCl2 (or Cisbio PPI buffer). Streptavidin-Terbium was added to 2 nM and EDTA to 10 mM, to provide a binding assay mix. Compounds were dissolved in DMSO and diluted to prepare a ten-point dilution series. 100 nl of each compound concentration was dispensed in duplicate in a 384 well black assay plate using acoustic dispensing. Wells for maximum signal controls received 100 nl of DMSO only and wells for minimum signal controls received 100 nl of a reference inhibitor compound at a final assay concentration of 100 mM to produce 100% inhibition. 5 μl of diluted Cbl-b enzyme was added to all wells of the assay plate and incubated at RT for 30-60 min. The enzyme assay was initiated by addition of 5 μl of Src-Zap/ATP mix to all wells, and the plate incubated at RT for 60 min. The enzyme reaction was terminated and the binding reaction was initiated by adding 10p of binding assay mix to all wells and incubating the plate at RT for 60 min prior to assay read. Final assay conditions consisted of 6 nM Cbl-b, 1-2.5 nM Src-Zap70, 0.5 mM ATP, 1% (v/v) DMSO (enzyme reaction) and 100 nM UBE2D2(C85K)-Ub-FL-BODIPY, 5 mM EDTA, 1 nM Streptavidin-Tb (binding reaction). The HTRF assay signal was measured at 520 nm on an Envision plate reader, with reference signal at 485 or 620 nm. Data was normalized using maximum and minimum assay controls: % Inhibition=100−(100*((maximum control)−unknown)/(maximum control−minimum control)). A 4-parameter dose-response equation was used to fit the normalized dose-response data and derive an IC50 for test compounds.
In general terms: In TR-FRET formats the signal depends on donor and acceptor labels being close together.

For test [2], the system named is Recombinant human c-Cbl (aa 47-435). Description: c-Cbl Biochemical Assay (TR-FRET). Conditions: ratio from the Cbl-b and c-Cbl TR-FRET biochemical assays. As for the experimental part: c-Cbl Biochemical Assay (TR-FRET)
Recombinant human c-Cbl (aa 47-435) was expressed in E coli, purified and biotinylated in vitro. The protein was diluted to 12 nM in freshly prepared assay buffer consisting of 50 mM HEPES, pH 7.0, 100 mM NaCl, 5 mM MgCl2, 0.01% Triton-X 100, 0.01% BSA and 1 mM DTT. Recombinant human Src (aa 254-536)-GSSGSS-Zap-70 (aa 281-297) fusion protein was expressed in E coli and purified. Protein was diluted in assay buffer to 5-20 nM and ATP was added to 1 mM. Recombinant human UBE2D2(C85K) was expressed in E coli, purified and ubiquitinated and Bodipy labelled in vitro. Protein was diluted to 200 nM in assay buffer without MgCl2 (or Cisbio PPI buffer). Streptavidin-Terbium was added to 2 nM and EDTA to 10 mM, to provide a binding assay mix. Compounds were dissolved in DMSO and diluted to prepare a ten-point half log dilution series. 100 nl of each compound concentration was dispensed in duplicate in a 384 well black assay plate using acoustic dispensing. Wells for maximum signal controls received 100 nl of DMSO only and wells for minimum controls received 100 nl of a reference inhibitor compound at a final assay concentration of 100 mM to produce 100% inhibition. 5 μl of diluted c-Cbl enzyme was added to all wells of the assay plate and incubated at RT for 30 min. The enzyme assay was initiated by addition of 5 d of Src-Zap/ATP mix to all wells, and the plate incubated at RT for 60-90 min. The enzyme reaction was terminated and the binding reaction was initiated by adding 10p of binding assay mix to all wells and incubating the plate at RT for 60 min prior to assay read. Final assay conditions consisted of 6 nM c-Cbl. 2.5-10 nM Src-Zap70, 0.5 mM ATP. 1% (v/v) DMSO (enzyme reaction) and 100 nM UBE2D2(C85K)-Ub-FL-BODIPY, 5 mM EDTA, 1 nM Streptavidin-Tb (binding reaction). The HTRF assay signal was measured at 520 nm on an Envision plate reader, with reference signal at 485 or 620 nm. Data was normalized using maximum and minimum assay controls: % Inhibition=100−(100*((maximum control)−unknown)/(maximum control−minimum control)). A 4-parameter dose-response equation was used to fit the normalized dose-response data and derive an IC50 for test compounds.

Bounds are passed on as bounds.

For orientation: IC50 means the concentration needed to halve the response being measured.

T1 sequence (Q13191 36-427): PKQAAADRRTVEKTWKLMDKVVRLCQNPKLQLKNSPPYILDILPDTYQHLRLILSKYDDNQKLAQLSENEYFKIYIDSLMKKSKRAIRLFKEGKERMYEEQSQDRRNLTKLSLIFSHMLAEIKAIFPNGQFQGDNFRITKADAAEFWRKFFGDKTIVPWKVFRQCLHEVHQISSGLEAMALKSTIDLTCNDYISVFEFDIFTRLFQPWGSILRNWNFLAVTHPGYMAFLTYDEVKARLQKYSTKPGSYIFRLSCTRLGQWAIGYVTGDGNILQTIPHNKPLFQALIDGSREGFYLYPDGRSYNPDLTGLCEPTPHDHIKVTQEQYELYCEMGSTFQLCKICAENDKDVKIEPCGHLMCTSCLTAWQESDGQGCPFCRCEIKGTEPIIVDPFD

Take `C[C@H]1CCCN(Cc2cc(C(F)(F)F)c3oc(-c4cccc([C@H](c5nncn5C)C5CCC5)c4)nc3c2)C1` (single isomer, unassigned) [I-33]: the IC50 in test [1] is under 0.2 µM. Further, the “Cbl-b/c-Cbl Selectivity” value in test [2] was determined as 10.

Take `C[C@H]1CCCN(Cc2cc(C(F)(F)F)c3oc(-c4cccc([C@H](c5nncn5C)[C@H]5C[C@@H](C(F)(F)F)C5)c4)nc3c2)C1` (single isomer, unassigned) [I-59]: the IC50 in test [1] was under 0.2 µM. Moreover, in test [2], the “Cbl-b/c-Cbl Selectivity” value was determined as 19.

Regarding `CCNc1cc(-c2cc(C#N)ccc2-c2nncn2C)cc(-c2nc3cc(CNCC4(C#N)CCCC4)cc(C(F)(F)F)c3o2)n1` [I-4], the IC50 in test [1] fell in the range of 0.2 to 5 µM. The “Cbl-b/c-Cbl Selectivity” value in test [2] is 8.

For the compound `CC(C)NCc1cc(C(F)(F)F)c2oc(-c3cccc([C@]4(c5nncn5C)C[C@@H](C)C4)c3)nc2c1` [I-5, Isopropyl[(2-{3-[(1r,3s)-3-methyl-1-(4-methyl-1,2,4-triazol-3-yl)cyclobutyl]phenyl}-7-(trifluoromethyl)-1,3-benzoxazol-5-yl)methyl]amine], in test [1], the half-maximal inhibitory concentration (IC50) was 0.2 to 5 µM. The “Cbl-b/c-Cbl Selectivity” value in test [2] is 12.

In the case of `CO[C@H]1CCCN(Cc2cc(C(F)(F)F)c3oc(-c4cccc([C@]5(c6nncn6C)C[C@@H](C)C5)c4)nc3c2)C1` [I-6, 5-{1[(3S)-3-Methoxypiperidin-1-yl]methyl}-2-{3-[(1r,3s)-3-methyl-1-(4-methyl-1,2,4-triazol-3-yl)cyclobutyl]phenyl}-7-(trifluoromethyl)-1,3-benzoxazole], the IC50 in test [1] lay within 0.2 to 5 µM. In test [2], the “Cbl-b/c-Cbl Selectivity” value is recorded as 10.

Regarding `CO[C@@H]1CCCN(Cc2cc(C(F)(F)F)c3oc(-c4cccc([C@]5(c6nncn6C)C[C@@H](C)C5)c4)nc3c2)C1` [I-7], in test [1], the IC50 was in the range of 0.2 to 5 µM. Also, the “Cbl-b/c-Cbl Selectivity” value in test [2] came to 12.

As for `Cn1cnnc1[C@]1(c2cccc(-c3nc4cc(CN5CCC6(CC6)C5)cc(C(F)(F)F)c4o3)c2)C[C@H](C)C1` [I-9, 5-{5-Azaspiro[2.4]heptan-5-ylmethyl}-2-{3-[(1r,3s)-3-methyl-1-(4-methyl-1,2,4-triazol-3-yl)cyclobutyl]phenyl}-7-(trifluoromethyl)-1,3-benzoxazole], the IC50 in test [1] was under 0.2 µM. Further, the “Cbl-b/c-Cbl Selectivity” value in test [2] amounted to 18.

For the compound `CN(Cc1cc(C(F)(F)F)c2oc(-c3cccc([C@]4(c5nncn5C)C[C@@H](C)C4)c3)nc2c1)CC1CCC1` [I-10, 1-Cyclobutyl-N-methyl-N-((2-(3-((1s,3s)-3-methyl-1-(4-methyl-4H-1,2,4-triazol-3-yl)cyclobutyl)phenyl)-7-(trifluoromethyl)benzo[d]oxazol-5-yl)methyl)methanamine], in test [1], the IC50 is under 0.2 µM. The “Cbl-b/c-Cbl Selectivity” value in test [2] came to 10.

Consider `Cn1cnnc1-c1cc(F)ccc1-c1cc(NCCC#N)nc(-c2nc3cc(CN4CCC5(CC5)C4)cc(C(F)(F)F)c3o2)c1` [I-12, 3-{[6-(5-{5-azaspiro[2.4]heptan-5-ylmethyl}-7-(trifluoromethyl)-1,3-benzoxazol-2-yl)-4-[4-fluoro-2-(4-methyl-1,2,4-triazol-3-yl)phenyl]pyridin-2-yl]amino}propanenitrile], for which the IC50 in test [1] was under 0.2 µM. For the same compound, in test [2], the “Cbl-b/c-Cbl Selectivity” value is 7.

`Cn1cnnc1-c1cc(F)ccc1-c1cc(NCCC#N)nc(-c2nc3cc(CO)cc(C(F)(F)F)c3o2)c1` [I-14]: in test [1], the IC50 fell in the range of 0.2 to 5 µM. For the same compound, the “Cbl-b/c-Cbl Selectivity” value in test [2] stood at 7.

`Cn1cnnc1-c1ccc(C#N)cc1-c1cc(NCCC#N)nc(-c2nc3cc(CNCC(C)(C)O)cc(C(F)(F)F)c3o2)c1` [I-15, 3-{2-[(2-Cyanoethyl)amino]-6-(5-{[(2-hydroxy-2-methylpropyl)amino]methyl}-7-(trifluoromethyl)-1,3-benzoxazol-2-yl)pyridin-4-yl}-4-(4-methyl-1,2,4-triazol-3-yl)benzonitrile]: the IC50 in test [1] is under 0.2 µM. The “Cbl-b/c-Cbl Selectivity” value in test [2] turned out to be 7.

Turning to `Cn1cnnc1-c1ccc(C#N)cc1-c1cc(NCCC#N)nc(-c2nc3cc(CN4CCC5(CC5)C4)cc(C(F)(F)F)c3o2)c1` [I-16, 3-[2-(5-{5-azaspiro[2.4]heptan-5-ylmethyl}-7-(trifluoromethyl)-1,3-benzoxazol-2-yl)-6-[(2-cyanoethyl)amino]pyridin-4-yl]-4-(4-methyl-1,2,4-triazol-3-yl)benzonitrile], in test [1], the IC50 was in the range of 0.2 to 5 µM. In addition, the “Cbl-b/c-Cbl Selectivity” value in test [2] is reported as 7.

For the compound `Cn1cnnc1-c1ccc(C#N)cc1-c1cc(NCC2(CC#N)CC2)nc(-c2nc3cc(CN[C@@H]4CCC[C@@H]4O)cc(C(F)(F)F)c3o2)c1` [I-27], the IC50 in test [1] was under 0.2 µM. Further, the “Cbl-b/c-Cbl Selectivity” value in test [2] is 1.

Regarding `Cn1cnnc1-c1cc(F)ccc1-c1cc(NC[C@@H](O)CC#N)nc(-c2nc3cc(CN4CCC5(CC5)C4)cc(C(F)(F)F)c3o2)c1` [I-29], the IC50 in test [1] is under 0.2 µM. The “Cbl-b/c-Cbl Selectivity” value in test [2] came to 14.

As for `C[C@H]1CCCN(Cc2cc(C(F)(F)F)c3oc(-c4cccc([C@@H](c5nncn5C)C5CCC5)c4)nc3c2)C1` [I-34], in test [1], the 50% inhibitory concentration (IC50) was over 5 µM. In addition, in test [2], the “Cbl-b/c-Cbl Selectivity” value was 4.

Regarding `C[C@H]1CCCN(Cc2cc(C(F)(F)F)c3oc(-c4cccc(C(c5nncn5C)C5CCC5)c4)nc3c2)C1` (stereo partly drawn) [I-48], the IC50 in test [1] was under 0.2 µM. In test [2], the “Cbl-b/c-Cbl Selectivity” value came to 9.

`CN(Cc1cc(C(F)(F)F)c2oc(-c3cc(-c4cc(C#N)ccc4-c4nncn4C)cc(NCC4(CC#N)CC4)n3)nc2c1)[C@@H]1CCC[C@@H]1O` [I-49]: the IC50 in test [1] was under 0.2 µM. In test [2], the “Cbl-b/c-Cbl Selectivity” value was determined as 3.

Regarding `Cn1cnnc1-c1ccc(C#N)cc1-c1cc(NC[C@@H](O)CC#N)nc(-n2cc3c(C(F)(F)F)cc(CN4CCC5(CCC5)C4)cn3c2=O)c1` [I-50, (S)-3-(2-(6-((6-Azaspiro[3.4]octan-6-yl)methyl)-3-oxo-8-(trifluoromethyl)imidazo[1,5-a]pyridin-2(3H)-yl)-6-((3-cyano-2-hydroxypropyl)amino)pyridin-4-yl)-4-(4-methyl-4H-1,2,4-triazol-3-yl)benzonitrile], the IC50 in test [1] was under 0.2 µM. For the same compound, the “Cbl-b/c-Cbl Selectivity” value in test [2] is given as 21.

In the case of `C[C@H]1CCCN(Cc2cc(C(F)(F)F)c3oc(-c4cccc(C(c5nncn5C)C5COC5)c4)nc3c2)C1` (stereo partly drawn) [I-51], in test [1], the IC50 was 0.2 to 5 µM. Also, the “Cbl-b/c-Cbl Selectivity” value in test [2] turned out to be 7.

On to `Cn1cnnc1[C@@H](c1cccc(-c2nc3cc(CN4CCC5(CCC5)C4)cc(C(F)(F)F)c3o2)c1)[C@H]1C[C@H](C(F)(F)F)C1` [I-61], for which the IC50 in test [1] was over 5 µM.
